*1 amine or outer side, *2 acyl side, *3 side chain or, on linkers, in order; H or OH if unused. Primed or numbered codes have the meaning given here. Where no end group is shown, it is not given here. Side-chain parts run from the residue outwards. [ ]: non-standard residue; d: D form. The star is where a group is joined. C20 diacid = O=C(O)CCCCCCCCCCCCCCCCCCC(=O)*; γGlu = O=C(O)[C@H](CCC(=O)[*:2])N[*:1]; Iva = CC[C@](C)(N)C(=O)O; PEG2′ = not defined here; Aib = CC(C)(N)C(=O)O
What was measured:
[1] = tested on: C57BL/6J mice; assay: Oral glucose tolerance (OGTT), repeated glucose loads followed to 24 h after one s.c. dose; format: in vivo; conditions: four OGTT curves (0-22 h); 100 μg/kg subcutaneously
Method: Eight-week-old male C57BL/6J mice (Model Animal Research Center, Nanjing University) were randomly grouped according to similar blood glucose (assessed by blood samples obtained from the tail tip), with six mice in each group. […] The initial blood samples (fasted blood glucose levels) were obtained after about 4 h. Subsequently, an oral dose of glucose (2 g/kg) was administered and the animals were placed back in their holding cages (t=0). […] The oral dose of glucose was then repeated at 8 h of administration, 12 h of administration and […], and blood glucose changes were detected and followed until 24 hours. The data were processed using the software GraphPadPrism to make a line graph of blood glucose changes, and the area under the curve was calculated to obtain an AUC graph, and the results are shown in FIG. 1.

[2] = tested on: FN protein (fibronectin); assay: Western blot of FN protein in high glucose-induced in vitro renal fibrosis cell model; format: cell-based, rat; conditions: 10 μM; 30 mmol/L glucose; 48 h; mesangial and renal epithelial cells
Text: Hyperglycemia and increased production of glycosylation end products will cause morphological changes such as proliferation and hypertrophy of glomerular mesangial cells, increase in extracellular matrix (ECM) and mesangial expansion, which will eventually lead to the loss of its physiological function. […] Therefore, this example used high glucose to induce MCS mesangial cells and NRK renal epithelial cells to construct an in vitro renal fibrosis cell model for screening medicaments useful for the treatment of diabetic nephropathy. The renal mesangial cell strain GMC and glomerular epithelial cells mTEC used in this example were both cells kept in the applicant's laboratory (both were extracted from rat renal primary cells) and cultured in low sugar medium containing 10% fetal bovine serum. The cells were starved with serum-free culture medium for 24 h when grew to 70% confluence. The cells were divided into the following 9 groups by adjusting the glucose concentration as follows: […]

[3] = tested on: db/db diabetic mice; assay: Dose determination in 8-week-old db/db diabetic mice: blood glucose and body weight; format: in vivo; conditions: for subsequent blood glucose course (long-lasting effect): from day 3 / after days 3-5
Method: The db/db mice diabetic model (purchased from Nanjing University-Nanjing Institute of Biomedical Research, about 8 weeks, and blood glucose and body weight were measured to ensure the smooth subsequent experiments) was obtained, and the model mice were randomly divided into 12 groups (including polypeptide compounds 3, 8, 13, 15, semaglutide and physiological saline groups), with 6 mice in each group and no difference in basal body weight and blood glucose. Each group was injected subcutaneously with compound 3 (80 and 120 μg/kg, 2 groups), compound 8 (80 and 120 μg/kg, 2 groups), compound 13 (80 and 120 μg/kg, 2 groups), compound 15 (80 and 120 μg/kg, 2 groups), semaglutide (80 and 120 μg/kg, 2 groups) and physiological saline (DN group: normal mice born in the same litter; DC group: db/db mice control group) every day or every other day.
Blood glucose and body weight of mice were measured after daily administration and 6 h fasting on alternate days.

[4] = tested on: db/db diabetic mice; assay: Treatment of 12-week-old db/db diabetic mice: blood glucose, OGTT, ITT, ALT/AST, diabetic nephropathy indices; format: in vivo; conditions: for weekly blood glucose (hypoglycemic effect): FIG. 4A, blood glucose at normal levels at week 1; for weekly blood glucose (hypoglycemic effect) / improving oral glucose tolerance (OGTT) / improving insulin resistance (ITT) / ALT and AST in serum (hepatoprotective function): 120 μg/kg s.c. daily; for improving oral glucose tolerance (OGTT): FIG. 4B, week 4; for improving insulin resistance (ITT): FIG. 4C, week 5; for ALT and AST in serum (hepatoprotective function): FIG. 4D; for H&E staining of kidneys: glomerular adhesion, ameliorative and therapeutic effects: FIG. 5B; for H&E staining of kidneys: glomerular adhesion, ameliorative and therapeutic effects / PAS staining of kidneys: ameliorative effects on glomerular mesangial region / collagen content (Sirius red, FN and α-SMA staining of kidneys): after 8 weeks; for H&E staining of kidneys: glomerular adhesion, ameliorative and therapeutic effects / collagen content (Sirius red, FN and α-SMA staining of kidneys): compared to semaglutide, SAR425899 and MED C18-acid groups; for PAS staining of kidneys: ameliorative effects on glomerular mesangial region: FIG. 5C; for collagen content (Sirius red, FN and α-SMA staining of kidneys): FIGS. 5D to 5F
Method: Normal mice born in the same litter; DC group: db/db mice control group). Blood glucose and body weight were measured on alternate days after daily administration of the medicament, and water intake and food intake were measured once a week. OGTT was measured at week 4, insulin tolerance (ITT) was measured at week 5, metabolism of mice was examined using mouse metabolic cages at weeks 6-7, and various serological and pathological indices were taken at week 8.
Type 2-diabetes mice were characterized by obesity, insulin resistance, hyperglycemia, dyslipidemia and hepatic fat vacuole-like degeneration.
After 6 weeks of medical treatment, the mice was collected for urine using metabolic cages, and the protein content in the urine was detected using relevant kits. After 7 weeks of medical treatment, the material was taken and blood was used to detect serological indicators such as blood creatinine and urea nitrogen.

[5] = FIG. 3A, daily s.c., 120 μg/kg, vs saline DC group
[6] = FIG. 3B, every other day s.c., 80 μg/kg
[7] = FIG. 3B, every other day s.c., 120 μg/kg

Substance	long-acting hypoglycemic effects compared to semaglutide [1]	FN protein expression (Western blot) [2]	body weight (weight-lowering effect) ([3]; FIG. 3A, daily s.c.)	blood glucose (glucose-lowering effect) ([3]; FIG. 3A, daily s.c., 80 μg/kg)	blood glucose (glucose-lowering effect) [3, 5]	overall hypoglycemic effect ([3]; FIG. 3B, every other day s.c.)	blood glucose (hypoglycemic effect) [3, 6]	blood glucose (hypoglycemic effect) [3, 7]	subsequent blood glucose course (long-lasting effect) [3, 7]	weekly blood glucose (hypoglycemic effect) [4]	improving oral glucose tolerance (OGTT) [4]	improving insulin resistance (ITT) [4]	ALT and AST in serum (hepatoprotective function) [4]	H&E staining of kidneys: glomerular adhesion, ameliorative and therapeutic effects [4]	PAS staining of kidneys: ameliorative effects on glomerular mesangial region [4]	collagen content (Sirius red, FN and α-SMA staining of kidneys) [4]	weight-lowering effect relative to compounds 3 and 8 ([3]; FIG. 3A, daily s.c.)	effect relative to polypeptide compounds 3 and 8 ([3]; FIG. 3B, every other day s.c.)
His-(D-Ser)-Gln-Gly-Thr-Phe-Thr-Ser-Asp-Lys(PEG2-PEG2-γGlu-CO(CH2)18CO2H)-Ser-Lys-Tyr-Leu-Glu-Aib-Lys-Ala-Ala-Gln-Asp-Phe-Val-Glu-Trp-Leu-Lys-Ala-Gly-Gly-Pro-Ser-Ser-Gly-Ala-Pro-Pro-Pro-Ser-NH2 (H[dS]QGTFTSDK([PEG2′-PEG2′-γGlu-C20 diacid])SKYLE[Aib]KAAQDFVEWLKAGGPSSGAPPPS-NH2) [Compound 3]	superior and significant long-acting hypoglycemic effects	inhibited FN expression more significantly	better weight-lowering effect	significant glucose-lowering effect	good glucose-lowering effect in 3-5 days	more excellent hypoglycemic effect	first decrease and then increase, and the overall hypoglycemic effect was significant	good hypoglycemic effect on days 3-5	the blood glucose did not change much	significant hypoglycemic effects	performed more excellent	performed more excellent	more excellent hepatoprotective functions	more significant	more significant	improved more significantly	–	–
His-Aib-Gln-Gly-Thr-Phe-Thr-Ser-Asp-Lys(PEG2-PEG2-γGlu-CO(CH2)18CO2H)-Ser-Lys-Tyr-Leu-Asp-Glu-Arg-Ala-Ala-Gln-Asp-Phe-Iva-Gln-Trp-Leu-Leu-Asp-Gly-Gly-Pro-Ser-Ser-Gly-Aib-Pro-Pro-Pro-Ser-NH2 (H[Aib]QGTFTSDK([PEG2′-PEG2′-γGlu-C20 diacid])SKYLDERAAQDF[Iva]QWLLDGGPSSG[Aib]PPPS-NH2) [Compound 8]	superior and significant long-acting hypoglycemic effects	inhibited FN expression more significantly	better weight-lowering effect	significant glucose-lowering effect	good glucose-lowering effect in 3-5 days	more excellent hypoglycemic effect	first decrease and then increase, and the overall hypoglycemic effect was significant	good hypoglycemic effect on days 3-5	the blood glucose did not change much	significant hypoglycemic effects	performed more excellent	performed more excellent	more excellent hepatoprotective functions	more significant	more significant	improved more significantly	–	–
His-(D-Ser)-Gln-Gly-Thr-Phe-Thr-Ser-Asp-Lys(Gly-Gly-Ser-Gly-Ser-Gly-γGlu-CO(CH2)18-COOH)-Ser-Lys-Tyr-Leu-Glu-Aib-Lys-Ala-Ala-Gln-Asp-Phe-Val-Glu-Trp-Leu-Lys-Ala-Gly-Gly-Pro-Ser-Ser-Gly-Ala-Pro-Pro-Pro-Ser (H[dS]QGTFTSDKSKYLE[Aib]KAAQDFVEWLKAGGPSSGAPPPS; not fully specified (residue 10, C-terminus)) [Compound 13]	superior and significant long-acting hypoglycemic effects	inhibited FN expression more significantly	better weight-lowering effect	significant glucose-lowering effect with long-lasting effect	good glucose-lowering effect in 3-5 days	more excellent hypoglycemic effect	significant hypoglycemic effect on day 3, but the subsequent blood glucose level did not change much and tended to be stable	good hypoglycemic effect on days 3-5	kept good hypoglycemic effect	significant hypoglycemic effects	performed more excellent	performed more excellent	more excellent hepatoprotective functions	more significant	more significant	improved more significantly	superior to that of compounds 3 and 8	better than that of polypeptide compounds 3 and 8

— patent US20230183310A1, “Polypeptide Compounds and Use Thereof in the Prevention or Treatment of Diabetes or Diabetic Complications” (Shenzhen Turier Biotech Co., Ltd., priority 2020, published 2023)
